In this assay the test system is Myc. The assay is described as follows: Myc inhibition assay: Myc expression per cell by anti-Myc immunofluorescence, high-content imaging. It is filed as cell-based, human (patient-derived medulloblastoma xenograft cells). To be noted: medulloblastoma PDX cells, 4 h. The source says: To identify Myc inhibitors, cells isolated from patient-derived orthotopic xenografts (PDXs) from patients with Myc-driven medulloblastoma were used. Specifically, PDX cells were propagated by transplantation directly into the cerebellum of immunodeficient (NSG) mice and were never passaged in vitro in order to maintain properties of the tumor from which they were derived. Tumor tissues were isolated from tumor-bearing animals, dissociated into a single-cell suspension, resuspended in serum-free media, and immediately plated in 384 well plates. After overnight recovery, compounds were added to each well, and cells were incubated for 4 hours before being fixed and stained with anti-Myc antibodies and with DAPI to label nuclei. Cells were then analyzed using high-content imaging to determine the levels of Myc expression per cell and IC50 values of the compounds.

Setting [1] is: Table 1, read-out: IC50 (Myc inhibition).
[2] abbreviates: Table 2, read-out: MYC Inhibition IC50.

Like-named read-outs stand apart in the source and are kept apart here.

`O=C(Nc1cccc(Nc2nccc(-c3ccc4[nH]cnc4c3)n2)c1)c1ccccc1` [Compound 1, N-(3-((4-(1H-benzo[d]imidazol-5-yl)pyrimidin-2-yl)amino)phenyl)benzamide]: the 50% inhibitory concentration (IC50) is, setting by setting: under setting [1], under 200 nM; under setting [2], under 200 nM.
With `CC(=O)Nc1cccc(Nc2nccc(-c3ccc4[nH]cnc4c3)n2)c1` [Compound 2, N-(3-((4-(1H-benzo[d]imidazol-5-yl)pyrimidin-2-yl)amino)phenyl)acetamide], the IC50 was in the range of 200 to 1000 nM under setting [1] and 200 to 1000 nM under setting [2].
In the case of `Cc1cccc(C)c1-c1cccc(Nc2nccc(-c3ccc4[nH]cnc4c3)n2)c1` [Compound 3, 4-(1H-benzo[d]imidazol-5-yl)-N-(2′,6′-dimethyl-[1,1′-biphenyl]-3-yl)pyrimidin-2-amine], the IC50 reads like this: under setting [1], 1000 to 10000 nM; under setting [2], 1000 to 10000 nM.
For the compound `Cc1ccc(C)n1-c1cccc(Nc2nccc(-c3ccc4[nH]cnc4c3)n2)c1` [Compound 4, 4-(1H-benzo[d]imidazol-5-yl)-N-(3-(2,5-dimethyl-1H-pyrrol-1-yl)phenyl)pyrimidin-2-amine], the IC50 under setting [1] was 1000 to 10000 nM and the IC50 under setting [2] was in the range of 1000 to 10000 nM.
For `CCS(=O)(=O)c1cccc(Nc2nccc(-c3ccc4[nH]cnc4c3)n2)c1` [Compound 5, 4-(1H-benzo[d]imidazol-5-yl)-N-(3-(ethylsulfonyl)phenyl)pyrimidin-2-amine], the IC50 runs as follows: under setting [1], under 200 nM; under setting [2], under 200 nM.
On to `c1cc(-c2ccc3[nH]cnc3c2)nc(Nc2cnn(C3CCOCC3)c2)n1` [Compound 6, 4-(1H-benzo[d]imidazol-5-yl)-N-(1-(tetrahydro-2H-pyran-4-yl)-1H-pyrazol-4-yl)pyrimidin-2-amine], for which the IC50 by setting is: under setting [1], 1000 to 10000 nM; under setting [2], 1000 to 10000 nM.
`CN(C)S(=O)(=O)c1cccc(Nc2nccc(-c3ccc4[nH]cnc4c3)n2)c1` [Compound 7, 3-((4-(1H-benzo[d]imidazol-5-yl)pyrimidin-2-yl)amino)-N,N-dimethylbenzenesulfonamide]: the IC50 by setting is: under setting [1], under 200 nM; under setting [2], under 200 nM.
Turning to `c1cc(Nc2nccc(-c3ccc4[nH]cnc4c3)n2)cc(-n2cccn2)c1` [Compound 8, N-(3-(1H-pyrazol-1-yl)phenyl)-4-(1H-benzo[d]imidazol-5-yl)pyrimidin-2-amine], the concentration for half-maximal inhibition (IC50) under setting [1] is under 200 nM and the IC50 under setting [2] was under 200 nM.
Turning to `O=C(NC1CC1)c1cccc(Nc2nccc(-c3ccc4[nH]cnc4c3)n2)c1` [Compound 9, 3-((4-(1H-benzo[d]imidazol-5-yl)pyrimidin-2-yl)amino)-N-cyclopropylbenzamide], the 50% inhibitory concentration (IC50) under setting [1] was in the range of 200 to 1000 nM and the IC50 under setting [2] was in the range of 200 to 1000 nM.
As for `O=C(c1cccc(Nc2nccc(-c3ccc4[nH]cnc4c3)n2)c1)N1CCOCC1` [Compound 11, (3-((4-(1H-benzo[d]imidazol-5-yl)pyrimidin-2-yl)amino)phenyl)(morpholino)methanone], the IC50 by setting is: under setting [1], 200 to 1000 nM; under setting [2], 200 to 1000 nM.
As for `O=S(=O)(Nc1ccccc1F)c1cccc(Nc2nccc(-c3ccc4[nH]cnc4c3)n2)c1` [Compound 12, 3-((4-(1H-benzo[d]imidazol-5-yl)pyrimidin-2-yl)amino)-N-(2-fluorophenyl)benzenesulfonamide], the IC50 reads like this: under setting [1], 200 to 1000 nM; under setting [2], 200 to 1000 nM.
For `Cc1cc(F)cc(Nc2nccc(-c3ccc4[nH]cnc4c3)n2)c1` [Compound 13, 4-(1H-benzo[d]imidazol-5-yl)-N-(3-fluoro-5-methylphenyl)pyrimidin-2-amine], the IC50 reads like this: under setting [1], under 200 nM; under setting [2], under 200 nM.
Consider `FC(F)(F)c1cncc(Nc2nccc(-c3ccc4[nH]cnc4c3)n2)c1` [Compound 14, 4-(1H-benzo[d]imidazol-5-yl)-N-(5-(trifluoromethyl)pyridin-3-yl)pyrimidin-2-amine], for which the IC50 is, setting by setting: under setting [1], 10000 to 100000 nM; under setting [2], 10000 to 100000 nM.
Consider `CCC(=O)Nc1cccc(Nc2nccc(-c3ccc4[nH]cnc4c3)n2)c1` [Compound 15, N-(3-((4-(1H-benzo[d]imidazol-5-yl)pyrimidin-2-yl)amino)phenyl)propionamide], for which the IC50 is, setting by setting: under setting [1], 200 to 1000 nM; under setting [2], 200 to 1000 nM.
As for `Cc1cc(C)cc(Nc2nccc(-c3ccc4[nH]cnc4c3)n2)c1` [Compound 16, 4-(1H-benzo[d]imidazol-5-yl)-N-(3,5-dimethylphenyl)pyrimidin-2-amine], the half-inhibitory concentration (IC50) under setting [1] is under 200 nM and the IC50 under setting [2] was under 200 nM.
In the case of `O=C(c1cccc(Nc2nccc(-c3ccc4[nH]cnc4c3)n2)c1)N1CCCC1` [Compound 17, (3-((4-(1H-benzo[d]imidazol-5-yl)pyrimidin-2-yl)amino)phenyl)(pyrrolidin-1-yl)methanone], the IC50 under setting [1] was 10000 to 100000 nM and the IC50 under setting [2] was in the range of 10000 to 100000 nM.
Regarding `CN(C)C(=O)c1cccc(Nc2nccc(-c3ccc4[nH]cnc4c3)n2)c1` [Compound 18, 3-((4-(1H-benzo[d]imidazol-5-yl)pyrimidin-2-yl)amino)-N,N-dimethylbenzamide], the IC50 is 1000 to 10000 nM under setting [1] and 1000 to 10000 nM under setting [2].
`CCN(CC)C(=O)c1cccc(Nc2nccc(-c3ccc4[nH]cnc4c3)n2)c1` [Compound 19, 3-((4-(1H-benzo[d]imidazol-5-yl)pyrimidin-2-yl)amino)-N,N-diethylbenzamide]: the IC50 fell in the range of 200 to 1000 nM under setting [1] and 200 to 1000 nM under setting [2].
On to `c1cnc(-n2cc(Nc3nccc(-c4ccc5[nH]cnc5c4)n3)cn2)nc1` [Compound 20, 4-(1H-benzo[d]imidazol-5-yl)-N-(1-(pyrimidin-2-yl)-1H-pyrazol-4-yl)pyrimidin-2-amine], for which the IC50 is, setting by setting: under setting [1], 200 to 1000 nM; under setting [2], 200 to 1000 nM.
In the case of `CC(C)n1cc(Nc2nccc(-c3ccc4[nH]cnc4c3)n2)cn1` [Compound 21, 4-(1H-benzo[d]imidazol-5-yl)-N-(1-isopropyl-1H-pyrazol-4-yl)pyrimidin-2-amine], the half-maximal inhibitory concentration (IC50) is, setting by setting: under setting [1], 200 to 1000 nM; under setting [2], 200 to 1000 nM.
As for `Oc1cccc(Nc2nccc(-c3ccc4[nH]cnc4c3)n2)n1` [Compound 22, 6-((4-(1H-benzo[d]imidazol-5-yl)pyrimidin-2-yl)amino)pyridin-2-ol], the half-inhibitory concentration (IC50) runs as follows: under setting [1], 10000 to 100000 nM; under setting [2], 10000 to 100000 nM.
As for `O=S(=O)(Nc1ccccc1)c1cccc(Nc2nccc(-c3ccc4[nH]cnc4c3)n2)c1` [Compound 23, 3-((4-(1H-benzo[d]imidazol-5-yl)pyrimidin-2-yl)amino)-N-phenylbenzenesulfonamide], the IC50 by setting is: under setting [1], 1000 to 10000 nM; under setting [2], 1000 to 10000 nM.
Take `O=S(=O)(NC1CC1)c1cccc(Nc2nccc(-c3ccc4[nH]cnc4c3)n2)c1` [Compound 24, 3-((4-(1H-benzo[d]imidazol-5-yl)pyrimidin-2-yl)amino)-N-cyclopropylbenzenesulfonamide]: the IC50 lay in the range of 200 to 1000 nM under setting [1] and 200 to 1000 nM under setting [2].
With `CNS(=O)(=O)c1cccc(Nc2nccc(-c3ccc4[nH]cnc4c3)n2)c1` [Compound 25, 3-((4-(1H-benzo[d]imidazol-5-yl)pyrimidin-2-yl)amino)-N-methylbenzenesulfonamide], the IC50 by setting is: under setting [1], under 200 nM; under setting [2], under 200 nM.
Regarding `CC(C)S(=O)(=O)c1cccc(Nc2nccc(-c3ccc4[nH]cnc4c3)n2)c1` [Compound 26, 4-(1H-benzo[d]imidazol-5-yl)-N-(3-(isopropylsulfonyl)phenyl)pyrimidin-2-amine], the IC50 is, setting by setting: under setting [1], under 200 nM; under setting [2], under 200 nM.
Regarding `CS(=O)(=O)c1cccc(Nc2nccc(-c3ccc4[nH]cnc4c3)n2)c1` [Compound 27, 4-(1H-benzo[d]imidazol-5-yl)-N-(3-(methylsulfonyl)phenyl)pyrimidin-2-amine], the IC50 runs as follows: under setting [1], under 200 nM; under setting [2], under 200 nM.
Take `O=C(O)c1cccc(Nc2nccc(-c3ccc4[nH]cnc4c3)n2)c1` [Compound 28, 3-((4-(1H-benzo[d]imidazol-5-yl)pyrimidin-2-yl)amino)benzoic acid]: the IC50 lay in the range of 1000 to 10000 nM under setting [1] and 1000 to 10000 nM under setting [2].
With `Oc1ccc(Nc2nccc(-c3ccc4[nH]cnc4c3)n2)cn1` [Compound 29, 5-((4-(1H-benzo[d]imidazol-5-yl)pyrimidin-2-yl)amino)pyridin-2-ol], the IC50 by setting is: under setting [1], 1000 to 10000 nM; under setting [2], 1000 to 10000 nM.
On to `FC(F)(F)c1cccc(Nc2nccc(-c3c[nH]c4cnccc34)n2)c1` [Compound 30, 4-(1H-pyrrolo[2,3-c]pyridin-3-yl)-N-(3-(trifluoromethyl)phenyl)pyrimidin-2-amine], for which the IC50 runs as follows: under setting [1], 1000 to 10000 nM; under setting [2], 1000 to 10000 nM.
`Brc1cccc(Nc2nccc(-c3ccc4[nH]cnc4c3)n2)c1` [Compound 31, 4-(1H-benzo[d]imidazol-5-yl)-N-(3-bromophenyl)pyrimidin-2-amine]: the 50% inhibitory concentration (IC50) by setting is: under setting [1], under 200 nM; under setting [2], under 200 nM.
Take `CC(C)(C)NS(=O)(=O)c1cccc(Nc2nccc(-c3ccc4[nH]cnc4c3)n2)c1` [Compound 32, 3-((4-(1H-benzo[d]imidazol-5-yl)pyrimidin-2-yl)amino)-N-(tert-butyl)benzenesulfonamide]: the IC50 lay in the range of 200 to 1000 nM under setting [1] and 200 to 1000 nM under setting [2].
Regarding `Cc1ccccc1-c1cccc(Nc2nccc(-c3ccc4[nH]cnc4c3)n2)c1` [Compound 33, 4-(1H-benzo[d]imidazol-5-yl)-N-(2′-methyl-[1,1′-biphenyl]-3-yl)pyrimidin-2-amine], the IC50 was 200 to 1000 nM under setting [1] and 200 to 1000 nM under setting [2].
Turning to `Cn1cnc2cc(-c3ccnc(Nc4cccc(C(F)(F)F)c4)n3)ccc21` [Compound 34, 4-(1-methyl-1H-benzo[d]imidazol-5-yl)-N-(3-(trifluoromethyl)phenyl)pyrimidin-2-amine], the IC50 runs as follows: under setting [1], 1000 to 10000 nM; under setting [2], 1000 to 10000 nM.

(Values after US20260356817A1, “AMINOPYRIMIDINE AND AMINOTRIAZINE DERIVATIVES AS MYC PROTEIN MODULATORS” (Sanford Burnham Prebys Medical Discovery Institute, priority 2022, published 2026).)
